Test results: patent US9850216B2 (H. LEE MOFFITT CANCER CENTER AND RESEARCH INSTITUTE, INC., priority 2013, dated 2017)
Where “and” joins values, the source holds several entries; their conditions need not be identical. Equal values may be shown once. Read-outs that look alike come from different tables or passages of the source.

What was measured:
ACK1 = ACK1 (Homo sapiens, UniProt Q07912); assay: ACK1 ELISA: phosphorylation of AKT-derived peptide; type: biochemical
[1] = 10 μM, Table 1, replicate values listed
[2] = 10 μM, Table 1, replicate values listed, hydrochloride
[3] = 10 μM, Table 1, replicate values listed, read-out: % Inhibition at 10 μM (ELISA)

ACK1, sequence (Q07912 whole entry): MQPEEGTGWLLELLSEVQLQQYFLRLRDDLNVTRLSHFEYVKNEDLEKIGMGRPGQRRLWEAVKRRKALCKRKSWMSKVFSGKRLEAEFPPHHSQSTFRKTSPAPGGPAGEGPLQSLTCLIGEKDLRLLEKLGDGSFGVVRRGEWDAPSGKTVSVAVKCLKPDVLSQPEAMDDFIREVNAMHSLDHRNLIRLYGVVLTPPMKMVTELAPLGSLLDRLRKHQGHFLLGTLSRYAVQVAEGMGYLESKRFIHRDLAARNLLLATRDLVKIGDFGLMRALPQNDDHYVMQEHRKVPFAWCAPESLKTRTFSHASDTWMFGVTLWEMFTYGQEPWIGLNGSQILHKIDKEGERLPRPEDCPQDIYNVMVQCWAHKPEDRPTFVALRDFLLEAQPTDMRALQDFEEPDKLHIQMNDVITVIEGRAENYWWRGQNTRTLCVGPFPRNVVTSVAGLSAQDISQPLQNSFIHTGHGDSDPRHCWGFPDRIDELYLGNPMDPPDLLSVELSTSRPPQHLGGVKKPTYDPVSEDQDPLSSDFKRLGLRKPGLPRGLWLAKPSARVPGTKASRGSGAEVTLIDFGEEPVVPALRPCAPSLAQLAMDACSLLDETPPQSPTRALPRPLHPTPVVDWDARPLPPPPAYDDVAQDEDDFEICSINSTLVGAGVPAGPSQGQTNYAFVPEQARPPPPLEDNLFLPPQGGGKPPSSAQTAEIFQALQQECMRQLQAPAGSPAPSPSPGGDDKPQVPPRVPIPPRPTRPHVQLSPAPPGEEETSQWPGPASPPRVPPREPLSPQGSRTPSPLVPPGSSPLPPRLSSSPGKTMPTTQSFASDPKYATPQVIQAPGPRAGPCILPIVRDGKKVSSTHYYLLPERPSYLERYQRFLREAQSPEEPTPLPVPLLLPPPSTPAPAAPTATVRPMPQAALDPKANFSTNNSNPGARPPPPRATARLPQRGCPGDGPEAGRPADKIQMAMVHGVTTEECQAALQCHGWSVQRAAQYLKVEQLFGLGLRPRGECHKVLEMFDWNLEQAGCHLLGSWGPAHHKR

| Structure (SMILES) | % Inhibition at 10 μM (ELISA) (ACK1; [1]) | melting point | % Inhibition at 10 μM (ELISA) (ACK1; [2]) | inhibition at 10 µM (ACK1; [3]) [%] | inhibition at 10 µM (ACK1; 10 μM, Table 2, library 9, read-out: % Inhibition @ 10 μM (ELISA)) [%] | inhibition at 10 µM (ACK1; read-out: % Inhibition at 10 μM (ELISA), 10 μM, Table 1, replicate values listed) [%] |
| --- | --- | --- | --- | --- | --- | --- |
| COc1ccc(Nc2ncc(C(=O)Nc3c(F)cccc3Cl)c(Nc3ccccc3SC)n2)cc1 [YL7-039-1, N-(2-chloro-6-fluorophenyl)-2-(4-methoxyphenylamino)-4-(2-(methylthio)phenylamino)pyrimidine-5-carboxamide] | 7% and 0% | 261 °C (dec.) | – | – | – | – |
| Cl.NC(=O)c1ccc(Nc2ncc(Br)c(NCC3CCCO3)n2)cc1 (centres unmarked) [YL7-172-5, 4-(5-Bromo-4-((tetrahydrofuran-2-yl)methylamino)pyrimidin-2-ylamino)benzamide hydrochloride] | – | 251 °C (dec.) | 31% and 77% and 82% | – | – | – |
| Cc1cnc(Nc2ccc(O)cc2)nc1NCC1CCCO1 (centres unmarked) [DZ1-116, 4-(5-methyl-4-((tetrahydrofuran-2-yl)methylamino)pyrimidin-2-ylamino)phenol] | 15% and 5% | 145.4 °C (dec.) | – | – | – | – |
| CC(C)S(=O)(=O)c1ccccc1Nc1nc(Cl)ncc1C(=O)Nc1c(F)cccc1Cl [YL7-041, 2-Chloro-N-(2-chloro-6-fluorophenyl)-4-(2-(isopropylsulfonyl)phenylamino)pyrimidine-5-carboxamide] | 7% and −21% and −27% | 225 to 227 °C | – | – | – | – |
| Cl.O=C(O)CCCc1ccc(Nc2ncc(Cl)c(NC[C@H]3CCCO3)n2)cc1 [NT1-026, (R)-4-(4-(5-Chloro-4-((tetrahydrofuran-2-yl)methylamino)pyrimidin-2-ylamino)phenyl)butanoic acid] | 65% | 180 °C (dec.) | – | 55 | – | – |
| CCS(=O)(=O)c1ccccc1Nc1nc(Nc2ccc(OC)cc2)ncc1C(=O)Nc1c(F)cccc1Cl [YL7-058-1, N-(2-chloro-6-fluorophenyl)-4-(2-(ethylsulfonyl)phenylamino)-2-(4-methoxyphenylamino)pyrimidine-5-carboxamide] | −6% and 0% | 263 to 265 °C | – | – | – | – |
| Cl.Oc1ccc(Nc2ncc(Br)c(NCC3CCCO3)n2)cc1Cl (centres unmarked) [YL7-172-1, 4-(5-Bromo-4-((tetrahydrofuran-2-yl)methylamino)pyrimidin-2-ylamino)-2-chlorophenol hydrochloride] | – | 193 °C (dec.) | 75% and 55% and 35% | – | – | – |
| Cl.O=C(O)Cc1ccc(Nc2ncc(Br)c(NCC3CCCO3)n2)cc1 (centres unmarked) [NT1-022, 2-(4-(5-Bromo-4-((tetrahydrofuran-2-yl)methylamino)pyrimidin-2-ylamino)phenyl)acetic acid] | 63% | 120 °C (dec.) | – | 59 | – | – |
| CCSc1ccccc1Nc1nc(Cl)ncc1C(=O)Nc1c(F)cccc1Cl [YL7-053, 2-Chloro-N-(2-chloro-6-fluorophenyl)-4-(2-(ethylthio)phenylamino)pyrimidine-5-carboxamide] | – | 205 to 208 °C | – | 0 | – | – |
| COc1ccc(Nc2ncc(C(=O)Nc3c(F)cccc3Cl)c(Nc3ccccc3SC(C)C)n2)cc1 [YL7-045-3, N-(2-chloro-6-fluorophenyl)-4-(2-(isopropylthio)phenylamino)-2-(4-methoxyphenylamino)pyrimidine-5-carboxamide] | −15% and 0% | 237 to 240 °C | – | – | – | – |
| Cl.O=C(O)c1cc(Nc2ncc(Br)c(NCC3CCCO3)n2)ccc1O (centres unmarked) [YL8-003-1, 5-(5-Bromo-4-((tetrahydrofuran-2-yl)methylamino)pyrimidin-2-ylamino)-2-hydroxybenzoic acid hydrochloride] | – | 211 °C (dec.) | 28% and 16% | 27 | – | – |
| Cl.NS(=O)(=O)c1ccc(Nc2ncc(Br)c(NCC3CCCO3)n2)cc1 (centres unmarked) [YL8-003-3, 4-(5-Bromo-4-((tetrahydrofuran-2-yl)methylamino)pyrimidin-2-ylamino)benzenesulfonamide hydrochloride] | – | 214 °C (dec.) | 68% and 63% | 56 | – | – |
| Cl.O=C(O)c1cc(Nc2ncc(C(=O)Nc3c(F)cccc3Cl)c(NCC3CCCO3)n2)ccc1O (centres unmarked) [YL8-009-2, 5-(5-(2-Chloro-6-fluorophenylcarbamoyl)-4-((tetrahydrofuran-2-yl)methylamino)pyrimidin-2-ylamino)-2-hydroxybenzoic acid hydrochloride] | – | 298 °C (dec.) | 40% and 55% | 44 | – | – |
| Cl.Oc1ccc(Nc2nc(NCC3CCCO3)c3ccccc3n2)cc1F (centres unmarked) [YL8-001, 2-Fluoro-4-(4-((tetrahydrofuran-2-yl)methylamino)quinazolin-2-ylamino)phenol hydrochloride] | – | 144 °C (dec.) | 4% and 10% and −6% | – | – | – |
| CCCS(=O)(=O)c1ccccc1Nc1nc(Nc2ccc(O)cc2)ncc1C(=O)Nc1c(F)cccc1Cl [YL7-055-2, N-(2-chloro-6-fluorophenyl)-2-(4-hydroxyphenylamino)-4-(2-(propylsulfonyl)phenylamino)pyrimidine-5-carboxamide] | 58% | 165 °C (dec.) | – | 57 | – | – |
| CCCS(=O)(=O)c1ccccc1Nc1nc(Nc2ccc(OC)cc2)ncc1C(=O)Nc1c(F)cccc1Cl [YL7-055-1, N-(2-chloro-6-fluorophenyl)-2-(4-methoxyphenylamino)-4-(2-(propylsulfonyl)phenylamino)pyrimidine-5-carboxamide] | 27% and 13% | 234 to 235 °C | – | – | – | – |

| Structure (SMILES) | % Inhibition at 10 μM (ELISA) (ACK1; [1]) | melting point | % Inhibition at 10 μM (ELISA) (ACK1; [2]) | inhibition at 10 µM (ACK1; [3]) [%] | inhibition at 10 µM (ACK1; 10 μM, Table 2, library 9, read-out: % Inhibition @ 10 μM (ELISA)) [%] | inhibition at 10 µM (ACK1; read-out: % Inhibition at 10 μM (ELISA), 10 μM, Table 1, replicate values listed) [%] |
| --- | --- | --- | --- | --- | --- | --- |
| CC(C)(C)OC(=O)N1CCN(c2ccc(Nc3ncc(Br)c(NCC4CCCO4)n3)cc2)CC1.Cl (centres unmarked) [YL9-157, tert-Butyl4-(4-(5-bromo-4-((tetrahydrofuran-2-yl)methylamino)pyrimidin-2-ylamino)phenyl)piperazine-1-carboxylate hydrochloride] | – | 124 °C (dec.) | 46% | 47 | – | – |
| CC(C)Sc1ccccc1Nc1nc(Cl)ncc1C(=O)Nc1c(F)cccc1Cl [YL7-040, 2-Chloro-N-(2-chloro-6-fluorophenyl)-4-(2-(isopropylthio)phenylamino)pyrimidine-5-carboxamide] | – | 202 to 205 °C | – | 0 | – | – |
| CSc1ccccc1Nc1nc(Cl)ncc1C(=O)Nc1c(F)cccc1Cl [YL7-031B2, 2-Chloro-N-(2-chloro-6-fluorophenyl)-4-(2-(methylthio)phenylamino)pyrimidine-5-carboxamide] | – | 204 to 206 °C | – | 0 | – | – |
| O=C(Nc1c(F)cccc1Cl)c1cnc(Cl)nc1NCC1CCCO1 (centres unmarked) [YL7-102, 2-Chloro-N-(2-chloro-6-fluorophenyl)-4-((tetrahydrofuran-2-yl)methylamino)pyrimidine-5-carboxamide] | – | 142 °C (dec.) | – | 0 | – | – |
| CCCSc1ccccc1Nc1nc(Nc2ccc(O)cc2)ncc1C(=O)Nc1c(F)cccc1Cl [YL7-055-4, N-(2-chloro-6-fluorophenyl)-2-(4-hydroxyphenylamino)-4-(2-(propylthio)phenylamino)pyrimidine-5-carboxamide] | 27% | 208 °C (dec.) | – | 28 | – | – |
| Cl.Oc1ccc(Nc2ncc(F)c(NCC3CCCO3)n2)cc1F (centres unmarked) [YL7-164, 2-Fluoro-4-(5-fluoro-4-((tetrahydrofuran-2-yl)methylamino)pyrimidin-2-ylamino)phenol hydrochloride] | – | – | 46% and 55% | 37 | – | – |
| Cl.O=C(O)Cc1ccc(Nc2ncc(Cl)c(NC[C@H]3CCCO3)n2)cc1 [NT1-012, (R)-2-(4-(5-Chloro-4-((tetrahydrofuran-2-yl)methylamino)pyrimidin-2-ylamino)phenyl)acetic acid] | 74% | – | – | 68 | – | – |
| Brc1cnc(Nc2ccc(N3CCNCC3)cc2)nc1NCC1CCCO1 (centres unmarked) [Compound 15] | – | – | – | – | 65 | – |
| Cl.Clc1cnc(Nc2ccc(C3CCNCC3)cc2)nc1NC[C@@H]1CCCO1 [NT1-011, (S)-5-Chloro-N^2-(4-(piperidin-4-yl)phenyl)-N^4-((tetrahydrofuran-2-yl)methyl)pyrimidine-2,4-diamine] | 76% | – | – | 77 | – | – |
| Cl.Clc1cnc(Nc2ccc(C3CCNCC3)cc2)nc1NCC1CCCO1 (centres unmarked) [NT1-005, 5-Chloro-N^2-(4-(piperidin-4-yl)phenyl)-N^4-((tetrahydrofuran-2-yl)methyl)pyrimidine-2,4-diamine] | 80% | – | – | 79 | – | – |
| CCOC(=O)C1CCN(c2ccc(Nc3ncc(Cl)c(NC[C@@H]4CCCO4)n3)cc2)CC1.Cl [DZ1-079, (S)-ethyl1-(4-(5-chloro-4-((tetrahydrofuran-2-yl)methylamino)pyrimidin-2-ylamino)phenyl)piperidine-4-carboxylate] | 69% | – | – | 54 | – | – |
| COc1ccc(Nc2ncc(C(=O)Nc3c(F)cccc3Cl)c(NCC3CCCO3)n2)cc1 (centres unmarked) [YL7-104-1, N-(2-chloro-6-fluorophenyl)-2-(4-methoxyphenylamino)-4-((tetrahydrofuran-2-yl)methylamino)pyrimidine-5-carboxamide] | 76% and 61% and 37% and 27% | – | – | – | – | – |
| O=C(O)C1CCN(c2ccc(Nc3ncc(Br)c(NCC4CCCO4)n3)cc2)CC1 (centres unmarked) | 84% | – | – | – | – | 85 |
| O=C(O)C1CCN(c2ccc(Nc3ncc(Cl)c(NCC4CCCO4)n3)cc2)CC1 (centres unmarked) [YL8-050, 1-(4-(5-Chloro-4-((tetrahydrofuran-2-yl)methylamino)pyrimidin-2-ylamino)phenyl)piperidine-4-carboxylic acid] | 96% | – | – | 87 | – | – |
| CN1CCN(c2ccc(Nc3nccc(NCC4CCCO4)n3)cc2)CC1 (centres unmarked) [DZ1-104] | 13% | – | – | 19 | – | – |
